Reference: patent US4489163A, “rCRF and analogs” (The Salk Institute for Biological Studies, priority 1983, dated 1984)
pEC50: −log10 of the molar value. “Also recorded” adds a separate entry of the source.

Columns and labels:
[1] = system: cultured rat pituitary cells; test: secretion of ACTH and β-endorphin by cultured rat pituitary cells in vitro; format: cell-based
Excerpt: (§1) The synthetic and the natural rCRF were examined for their effects on the secretion of ACTH and β-endorphin in vitro and the synthetic rCRF was also examined in vivo.

[2] = system: ACTH and β-endorphin-like (β-END-LI) secretion; test: ACTH and β-END-LI secretion in vivo after intravenous administration; design: species or system rats; settings: for stimulation of ACTH and β-END-LI secretion in vivo (words): several rat preparations
Excerpt: as §1

[3] = lowering of blood pressure in rats; format: in vivo
[4] = lowering of blood pressure in dogs; format: in vivo
[5] = activity and learning performance after administration into the ventricles; format: in vivo; settings: administered into the ventricles, rats
Excerpt: Because ACTH and β-END secretion is the "sine qua non" of an animal's response to stress, it was not surprising that rCRF has significant effects on the brain as a mediator of the body's stress response. Accordingly, rCRF may also find application in modifying the mood, learning and behavior of normal and mentally disordered individuals. Because rCRF and its analogs elevate the levels of ACTH, β-END, β-lipotropin, other pro-opiomelanocortin gene products and corticosterone, its administration can be used to induce their effects on the brain and its periphery to thereby influence memory, mood, pain appreciation, etc., and more specifically, alertness, depression and/or anxiety.

[6] = mammals; reported; cited from earlier work
[7] = system: secretion of ACTH and β-endorphin; settings: reported; cited from earlier work

Row | Compound | pEC50 ([1]; concentration giving half-maximal response, cultured rat pituitary cells) | minimal response, secretion of ACTH and β-endorphin ([1]; concentration giving minimal response, cultured rat pituitary cells) | maximal concentrations, secretory response at a plateau level ([1]; cultured rat pituitary cells) | stimulation of secretion of ACTH and β-endorphin in vitro ([1]; in vitro) | elevation of ACTH and β-endorphin-like (β-END-LI) secretion ([2]; in vivo doses from 30 ng to 3 μg/Kg of body weight) | stimulation of ACTH and β-END-LI secretion in vivo (words) [2] | stimulation of ACTH and β-END-LI secretion in vivo (words) ([2]; listed as Synthetic rCRF) | time plasma levels of ACTH and β-END-LI are elevated ([2]; intravenous, nembutal-anesthesized male rats and quiescent male or female rats with indwelling cannulae) | lowering of blood pressure ([3]; rats) | lowering of blood pressure ([3]; species not given, general procedure of Example III) | lowering of blood pressure [4] | activity [5] | learning performance [5] | biological activity in lowering blood pressure [6] | biological activity in stimulating the secretion of ACTH and β-endorphin [7]
1 | CC[C@H](C)[C@H](NC(=O)[C@@H](NC(=O)[C@H](CCC(=O)O)NC(=O)[C@H](CCSC)NC(=O)[C@H](CC(C)C)NC(=O)[C@H](CCCCN)NC(=O)[C@H](CCCNC(=N)N)NC(=O)[C@H](CC(N)=O)NC(=O)[C@H](CO)NC(=O)[C@H](Cc1c[nH]cn1)NC(=O)[C@H](C)NC(=O)[C@H](CCC(N)=O)NC(=O)[C@H](CCC(N)=O)NC(=O)[C@H](C)NC(=O)[C@H](CC(C)C)NC(=O)[C@H](CCC(N)=O)NC(=O)[C@H](CCC(=O)O)NC(=O)[C@H](C)NC(=O)[C@H](CCCNC(=N)N)NC(=O)[C@H](C)NC(=O)[C@H](CCSC)NC(=O)[C@H](CCC(=O)O)NC(=O)[C@H](CC(C)C)NC(=O)[C@@H](NC(=O)[C@H](CCC(=O)O)NC(=O)[C@H](CCCNC(=N)N)NC(=O)[C@H](CC(C)C)NC(=O)[C@H](CC(C)C)NC(=O)[C@H](Cc1c[nH]cn1)NC(=O)[C@H](Cc1ccccc1)NC(=O)[C@@H](NC(=O)[C@H](CC(C)C)NC(=O)[C@H](CC(=O)O)NC(=O)[C@H](CC(C)C)NC(=O)[C@H](CO)NC(=O)[C@@H](NC(=O)[C@@H]1CCCN1C(=O)[C@@H]1CCCN1C(=O)[C@H](CCC(=O)O)NC(=O)[C@H](CCC(=O)O)NC(=O)[C@@H](N)CO)[C@@H](C)CC)[C@@H](C)O)C(C)C)[C@@H](C)CC)C(N)=O [synthetic rCRF] | ~10.00 | about 10 picomolar | > 5 nM | high potency; also recorded: stimulate ACTH and β-endorphin activies | 5-20 fold | stimulate ACTH and β-endorphin activies | powerful stimulator of ACTH and β-END-LI secretion in vivo | 5 to 20 min | dramatic effect to lower blood pressure | substantially lower blood pressure for an extended time period | dramatic effect to lower blood pressure | increases activity | improves learning performance |  | 
2 | H-Ser-Gln-Glu-Pro-Pro-Ile-Ser-Leu-Asp-Leu-Thr-Phe-His-Leu-Leu-Arg-Glu-Val-Leu-Glu-Met-Thr-Lys-Ala-Asp-Gln-Leu-Ala-Gln-Gln-Ala-His-Ser-Asn-Arg-Lys-Leu- Leu-Asp-Ile-Ala-NH2 (H-SQEPPISLDLTFHLLREVLEMTKADQLAQQAHSNRKLLDIA-NH2) [oCRF, ovine corticotropin releasing factor characterized in 1981] |  |  |  |  |  |  |  |  |  |  |  |  |  | biological activity in lowering blood pressure in mammals | stimulating the secretion of ACTH and β-endorphin
